From patent US5387602A, “1.5-diphenyl-3-(N-hydroxycarbamoyloxyalkyl)pyrazoles” (Ortho Pharmaceutical Corporation, priority 1993, dated 1995)

Experiments:
[1] = target: T1, Sheep Seminal Vesicle Cyclooxygenase (Ovis aries, UniProt P05979); test: Procedure I: sheep seminal vesicle (SSV) cyclooxygenase inhibition; type: biochemical; settings: for IC50: SSV CO; for % INHIB. CO (Procedure I): dose 3 MPK unless otherwise stated (so in the source)
T1 construct: purchased Biomol (Plymouth Meeting, Pa.); host or cells: sheep seminal vesicle
T1 sequence (P05979 25-600): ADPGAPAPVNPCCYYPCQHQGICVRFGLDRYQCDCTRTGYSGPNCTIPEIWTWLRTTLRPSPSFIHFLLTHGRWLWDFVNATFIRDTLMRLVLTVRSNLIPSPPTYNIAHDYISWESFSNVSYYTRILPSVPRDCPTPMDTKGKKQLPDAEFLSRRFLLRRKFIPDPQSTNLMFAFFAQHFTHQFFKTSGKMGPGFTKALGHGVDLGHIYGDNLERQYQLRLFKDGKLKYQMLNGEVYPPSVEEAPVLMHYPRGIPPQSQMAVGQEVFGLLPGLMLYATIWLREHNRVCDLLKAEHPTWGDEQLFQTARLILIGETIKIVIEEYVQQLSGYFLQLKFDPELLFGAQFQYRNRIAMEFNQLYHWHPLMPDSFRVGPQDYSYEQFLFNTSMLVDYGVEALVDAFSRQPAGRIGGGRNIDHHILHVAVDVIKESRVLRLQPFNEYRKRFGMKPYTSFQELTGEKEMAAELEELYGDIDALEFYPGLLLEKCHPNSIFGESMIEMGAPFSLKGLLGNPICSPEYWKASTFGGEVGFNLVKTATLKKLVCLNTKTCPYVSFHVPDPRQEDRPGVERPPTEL
Description: Sheep Seminal Vesicle Cyclooxygenase Sheep seminal vesicle (SSV) cyclooxygenase (95% pure, prostaglandin endoperoxide synthase, EC 1.14.99.1 specific activity 24 units/mg protein) obtained as a lyophilized powder from Biomol (Plymouth Meeting, Pa.) was reconstituted at a concentration of 59 mg/mL in Hanks' Balanced Salt Solution (HBSS). The enzyme was divided into 200 μL aliquots, snap frozen with liquid N2, and stored at -70° C. until immediately prior to use. Measurements of CO activity were carried out in polypropylene tubes containing 495 μL of HBSS to which was added 5 μL Of inhibitor or dimethylsulfoxide (DMSO; vehicle control) and 6 μL of SSV CO solution. The tubes were mixed on a vortex shaker, preincubated for 5 min at 37° C. prior to the initiation of the reaction. The reaction was started by the addition of [^14 C]-arachidonic acid (1-^14 C-AA, Amersham, Arlington Heights, Ill.) in 10 μL of methanol. Tubes were again vortexed and incubated in a water bath for 20 minutes after which the tubes were removed and the reaction stopped by acidification with the addition of 1 mL 2M formic acid. Lipophilic products were extracted with 3 mL chloroform and concentrated to dryness under N2. Each pellet was reconstituted with 40 μL of chloroform and spotted on a Whatman Silicon thin-layer chromatography plate and developed in a chromatography tank containing A-9 solvent (11:5:2:1 V:V:V:V, ethyl acetate:trimethyl-pentane:acetic acid:double distilled-H2 O). Radioactive cyclooxygenase products (prostaglandin D2, prostaglandin E2, etc.) were measured using a Bioscan System 200 Imaging Scanner. Inhibition of enzyme activity was calculated by comparing the areas under the curve produced in the presence or absence of test compound. In the following tables, the superscripts indicate the number of experiments and, unless otherwise stated, the dose at which % inhibition is reported is 3 MPK.

[2] = target: T2, RBL-1 Cell Cyclooxygenase (Rattus norvegicus, UniProt Q63921); test: Procedure II: cyclooxygenase inhibition in disrupted RBL-1 cells (supernatant as enzyme source); type: biochemical; settings: for IC50: read-out: IC50 CO (Procedure II)
T2 construct: the supernatant was saved as the source of enzymes; endogenous in cells; host or cells: RBL-1 (rat basophilic leukemia cells), 10,000×g supernatant of homogenate
T2 sequence (Q63921 27-602): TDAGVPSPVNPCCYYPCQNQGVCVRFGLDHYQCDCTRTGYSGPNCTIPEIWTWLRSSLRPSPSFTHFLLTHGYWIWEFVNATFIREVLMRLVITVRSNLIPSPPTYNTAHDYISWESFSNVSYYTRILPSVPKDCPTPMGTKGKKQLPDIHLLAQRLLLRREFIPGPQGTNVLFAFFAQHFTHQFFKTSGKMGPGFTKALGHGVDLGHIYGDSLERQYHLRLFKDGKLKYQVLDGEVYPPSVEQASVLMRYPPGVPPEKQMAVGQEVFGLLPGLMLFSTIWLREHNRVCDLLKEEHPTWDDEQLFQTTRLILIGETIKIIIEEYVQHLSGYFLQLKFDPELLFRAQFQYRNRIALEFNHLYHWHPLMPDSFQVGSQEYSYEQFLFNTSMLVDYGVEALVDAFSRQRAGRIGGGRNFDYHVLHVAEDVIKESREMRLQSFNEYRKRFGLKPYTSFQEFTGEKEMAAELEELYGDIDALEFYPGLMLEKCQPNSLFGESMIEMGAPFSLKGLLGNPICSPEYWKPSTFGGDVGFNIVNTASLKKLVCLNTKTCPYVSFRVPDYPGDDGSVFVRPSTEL
Description: RBL-1 Cell 5-Lipoxygenase and Cyclooxygenase
Rat basophilic leukemia cells (RBL-1; 5×10^7 viable cells/mL) were disrupted by homogenization on ice (four 20 sec bursts) with a Brinkman polytron. Complete cell breakage was verified microscopically. The homogenate was then centrifuged at 10,000×g for 48 minutes at 4° C. The pellet was discarded and the supernatant was saved as the source of enzymes. The supernatant was pre-incubated for five minutes at 37° C. in the presence of 2 mM of CaCl2 and compound or vehicle (1% DMSO). The conversion of AA into 5-LO products was initiated by adding 10 μL (50 μCi) of 1-^14 C-AA to each tube and incubated at 37° C. for 20 minutes. The reaction was stopped by adjusting the pH of each sample to 3 to 3.5 with 2M formic acid. Samples were extracted with three volumes of chloroform to isolate the products of 5-LO formed during the reaction. Fractions were dried under nitrogen, then resuspended in 40 μL of chloroform and spotted onto silica gel HL plates. The plates were developed in A-9 solvent. The dried plates were analyzed using a Bioscan Imaging TLC scanner to determine the percentage of radiolabelled AA converted to 5-HETE in each sample.
In the following tables, the superscripts indicate the number of experiments and, unless otherwise stated, the dose at which % inhibition is reported is 3 MPK.

IC50 [1] [µM] | % INHIB. CO (Procedure I) [1] [%] | % INHIBITION CO (Procedure II) [2] [%] | IC50 [2] [µM] | Structure (SMILES)
0.41 | 100 | 100 | 0.4 | COc1ccc(-n2nc(CCOC(=O)N(C)O)cc2-c2ccc(C)cc2)cc1 [2-G]
0.22 | 94 | 100 | 0.04 | COc1ccc(-n2nc(CCOC(=O)N(O)C(C)C)cc2-c2ccc(C)cc2)cc1 [2-H]
3.5 | 80 | 52 | 2.01 | COc1ccc(-n2nc(CCOC(=O)N(C)O)c(Cl)c2-c2ccc(C)cc2)cc1 [2-I]
4.5 | 88 | 42 | 0.48 | COc1ccc(-n2nc(CCOC(=O)N(O)C(C)C)c(Cl)c2-c2ccc(C)cc2)cc1 [2-J]
 | 21 | 35 | 0.41 | COc1ccc(-n2nc(CCOC(=O)NO)c(Br)c2-c2ccc(C)cc2)cc1 [2-K]
 | 22 | 39 | 0.83 | COc1ccc(-n2nc(CCOC(=O)N(C)O)c(Br)c2-c2ccc(C)cc2)cc1 [2-L]
4 | 40 | 67 | 3 | COc1ccc(-n2nc(CCCOC(=O)NO)cc2-c2ccc(Cl)cc2)cc1 [3-A]
 | 74 | 65 | 6.34 | COc1ccc(-n2nc(CCCOC(=O)N(C)O)cc2-c2ccc(Cl)cc2)cc1 [3-B]
1.4 | 53 | 72 | 1.78 | COc1ccc(-n2nc(CCCOC(=O)N(O)C(C)C)cc2-c2ccc(Cl)cc2)cc1 [3-C]
2.55 | 68 | 100 | 2.25 | COc1ccc(-n2nc(CCCOC(=O)N(C)O)c(Cl)c2-c2ccc(Cl)cc2)cc1 [3-D]
5.8 | 26 | 52 | 17 | COc1ccc(-n2nc(CCCOC(=O)N(O)C(C)C)c(Cl)c2-c2ccc(Cl)cc2)cc1 [3-E]
2.29 | 78 | 100 | 6.11 | COc1ccc(-n2nc(CCCOC(=O)N(C)O)c(Br)c2-c2ccc(Cl)cc2)cc1 [3-F]
14.1 | 0 | 0 | 3.17 | COc1ccc(-n2nc(CCCOC(=O)N(O)C(C)C)c(Br)c2-c2ccc(Cl)cc2)cc1 [3-G]
